These are literature values, as cited in patent US20140343147A1, “NUTRITIONAL SUPPLEMENT FOR THE ENHANCEMENT OF MUSCLE PERFORMANCE AND RECOVERY AND METHODS OF USE THEREOF” (Maximum Human Performance, LLC, priority 2011, published 2014).

Series [1] relates to mice. The settings on record: iv. in mice, Na-salt.
The conditions of series [2]: colorless crystals; water and alcohol.
For series [3], the system named is humans. The settings on record: daily dose.
The subject of series [4] is rats. The conditions noted are these: daily dose.

The term LD50 denotes the dose at which mortality reaches 50%. Consider `CC(C)CC(O)C(=O)O` (stereo not drawn) [HICA, 2-hydroxy-4-methylvaleric acid], for which the LD50 in series [1] was 650 mg/kg. Moreover, the solubility entry in series [2] was “soluble in water and alcohol”.
For the compound `N[C@H](CC(=O)O)C(=O)O` [D-aspartic acid], in series [3], the luteinizing hormone levels result is reported as “increase” and the testosterone levels entry is “increase”. In series [4], the luteinizing hormone levels result is listed as “increase” and the testosterone levels entry is “increase”.
